Data published in ChEMBL document CHEMBL4177730, “Rational modification of semaxanib and sunitinib for developing a tumor growth inhibitor targeting ATP binding site of tyrosine kinase” (2018).
Calls of active or inactive are those of the source. The calls are words filed in the database; no cut-off is given here.

Key:
U-251 = assay: Growth inhibition of human U251 cells at 10 uM after 48 hrs by sulforhodamine B assay; type: functional, cell-based
SK-MEL-2 = assay: Growth inhibition of human SK-MEL-2 cells after 48 hrs by sulforhodamine B assay; type: functional; conditions: SK-MEL-2, 48 h
SK-OV-3 = assay: Growth inhibition of human SKOV3 cells after 48 hrs by sulforhodamine B assay; type: functional; conditions: SK-OV-3, 48 h
ACHN [1] = assay: Growth inhibition of human ACHN cells at 10 uM after 48 hrs by sulforhodamine B assay; type: functional, cell-based
OVCAR-4 = assay: Growth inhibition of human OVCAR4 cells after 48 hrs by sulforhodamine B assay; type: functional; conditions: OVCAR-4, 48 h
SK-MEL-28 [2] = assay: Growth inhibition of human SK-MEL-28 cells after 48 hrs by sulforhodamine B assay; type: functional; conditions: SK-MEL-28, 48 h
786-0 = assay: Growth inhibition of human 786-0 cells after 48 hrs by sulforhodamine B assay; type: functional; conditions: 786-0, 48 h
RXF 393 = assay: Growth inhibition of human RXF393 cells at 10 uM after 48 hrs by sulforhodamine B assay; type: functional, cell-based
HL-60(TB) [3] = assay: Growth inhibition of human HL-60(TB) cells at 10 uM after 48 hrs by sulforhodamine B assay; type: functional, cell-based
NCI-H522 = assay: Growth inhibition of human NCI-H522 cells after 48 hrs by sulforhodamine B assay; type: functional; conditions: NCI-H522, 48 h
SW-620 = assay: Growth inhibition of human SW620 cells at 10 uM after 48 hrs by sulforhodamine B assay; type: functional, cell-based
HOP-92 = assay: Growth inhibition of human HOP92 cells after 48 hrs by sulforhodamine B assay; type: functional; conditions: HOP-92, 48 h
MDA-MB-468 [4] = assay: Growth inhibition of human MDA-MB-468 cells at 10 uM after 48 hrs by sulforhodamine B assay; type: functional, cell-based
MDA-MB-435 [5] = assay: Growth inhibition of human MDA-MB-435 cells at 10 uM after 48 hrs by sulforhodamine B assay; type: functional, cell-based
SF-268 = assay: Growth inhibition of human SF268 cells after 48 hrs by sulforhodamine B assay; type: functional; conditions: SF-268, 48 h
T47D = assay: Growth inhibition of human T47D cells after 48 hrs by sulforhodamine B assay; type: functional
MDA-MB-435 [6] = assay: Growth inhibition of human MDA-MB-435 cells after 48 hrs by sulforhodamine B assay; type: functional; conditions: MDA-MB-435, 48 h
SN12C = assay: Growth inhibition of human SN12C cells at 10 uM after 48 hrs by sulforhodamine B assay; type: functional, cell-based
HL-60(TB) [7] = assay: Growth inhibition of human HL-60(TB) cells after 48 hrs by sulforhodamine B assay; type: functional; conditions: HL-60, 48 h
OVCAR-3 = assay: Growth inhibition of human OVCAR3 cells after 48 hrs by sulforhodamine B assay; type: functional; conditions: OVCAR-3, 48 h
OVCAR-5 = assay: Growth inhibition of human OVCAR5 cells at 10 uM after 48 hrs by sulforhodamine B assay; type: functional, cell-based
CCRF-CEM = assay: Growth inhibition of human CCRF-CEM cells after 48 hrs by sulforhodamine B assay; type: functional
OVCAR-8 [8] = assay: Growth inhibition of human OVCAR8 cells at 10 uM after 48 hrs by sulforhodamine B assay; type: functional, cell-based
NCI-H226 = assay: Growth inhibition of human NCI-H226 cells at 10 uM after 48 hrs by sulforhodamine B assay; type: functional, cell-based
OVCAR-8 [9] = assay: Growth inhibition of human OVCAR8 cells after 48 hrs by sulforhodamine B assay; type: functional; conditions: OVCAR-8, 48 h
HT-29 [10] = assay: Growth inhibition of human HT-29 cells after 48 hrs by sulforhodamine B assay; type: functional; conditions: HT-29, 48 h
SK-MEL-28 [11] = assay: Growth inhibition of human SK-MEL-28 cells at 10 uM after 48 hrs by sulforhodamine B assay; type: functional, cell-based
Hs-578T = assay: Growth inhibition of human Hs 578T cells at 10 uM after 48 hrs by sulforhodamine B assay; type: functional, cell-based
DU-145 = assay: Growth inhibition of human DU145 cells at 10 uM after 48 hrs by sulforhodamine B assay; type: functional, cell-based
Malme-3M = assay: Growth inhibition of human MALME-3M cells after 48 hrs by sulforhodamine B assay; type: functional
MDA-MB-468 [12] = assay: Growth inhibition of human MDA-MB-468 cells after 48 hrs by sulforhodamine B assay; type: functional; conditions: MDA-MB-468, 48 h
SNB-75 = assay: Growth inhibition of human SNB75 cells at 10 uM after 48 hrs by sulforhodamine B assay; type: functional, cell-based
HT-29 [13] = assay: Growth inhibition of human HT-29 cells at 10 uM after 48 hrs by sulforhodamine B assay; type: functional, cell-based
ACHN [14] = assay: Growth inhibition of human ACHN cells after 48 hrs by sulforhodamine B assay; type: functional
HOP-62 = assay: Growth inhibition of human HOP62 cells after 48 hrs by sulforhodamine B assay; type: functional; conditions: HOP-62, 48 h
CAKI-1 [15] = assay: Growth inhibition of human CAKI-1 cells at 10 uM after 48 hrs by sulforhodamine B assay; type: functional, cell-based
CAKI-1 [16] = assay: Growth inhibition of human CAKI-1 cells after 48 hrs by sulforhodamine B assay; type: functional; conditions: CAKI-1, 48 h
[17] = read-out: LC50 (the source's name)

## O=C1/C(=C\c2cccn2Cc2ccccc2)c2ccccc2N1c1c(Cl)cccc1Cl
U-251
  growth inhibition (GI): Active
SK-MEL-2
  GI50: 2.23 µM
  TGI: > 100 µM
SK-MEL-2; [17]
  CC50: > 100 µM
SK-OV-3
  GI50: > 100 µM
  TGI: > 100 µM
SK-OV-3; [17]
  CC50: > 100 µM
ACHN [1]
  growth inhibition (GI): Active
OVCAR-4
  GI50: 0.12 µM
  TGI: > 100 µM
OVCAR-4; [17]
  CC50: > 100 µM
SK-MEL-28 [2]
  GI50: > 100 µM
  TGI: > 100 µM
SK-MEL-28 [2]; [17]
  CC50: > 100 µM
786-0
  GI50: > 100 µM
  TGI: > 100 µM
786-0; [17]
  CC50: > 100 µM
RXF 393
  growth inhibition (GI): Active
HL-60(TB) [3]
  growth inhibition (GI): Active
NCI-H522
  GI50: > 100 µM
  TGI: > 100 µM
NCI-H522; [17]
  CC50: > 100 µM
SW-620
  growth inhibition (GI): Active
HOP-92
  GI50: 0.97 µM
  TGI: 17.8 µM
HOP-92; [17]
  CC50: > 100 µM
MDA-MB-468 [4]
  growth inhibition (GI): Active
MDA-MB-435 [5]
  growth inhibition (GI): Active
SF-268
  GI50: > 100 µM
  TGI: > 100 µM
SF-268; [17]
  CC50: > 100 µM
T47D
  GI50: 0.21 µM
  TGI: 1.86 µM
T47D; [17]
  CC50: > 100 µM
MDA-MB-435 [6]
  GI50: > 100 µM
  TGI: > 100 µM
MDA-MB-435 [6]; [17]
  CC50: > 100 µM
SN12C
  growth inhibition (GI): Active
HL-60(TB) [7]
  GI50: > 100 µM
  TGI: > 100 µM
HL-60(TB) [7]; [17]
  CC50: > 100 µM
OVCAR-3
  GI50: 0.74 µM
  TGI: > 100 µM
OVCAR-3; [17]
  CC50: > 100 µM
OVCAR-5
  growth inhibition (GI): Active
CCRF-CEM
  GI50: > 100 µM
  TGI: > 100 µM
CCRF-CEM; [17]
  CC50: > 100 µM
OVCAR-8 [8]
  growth inhibition (GI): Active
NCI-H226
  growth inhibition (GI): Active
OVCAR-8 [9]
  GI50: > 100 µM
  TGI: > 100 µM
OVCAR-8 [9]; [17]
  CC50: > 100 µM
HT-29 [10]
  GI50: 6.45 µM
  TGI: > 100 µM
HT-29 [10]; [17]
  CC50: > 100 µM
SK-MEL-28 [11]
  growth inhibition (GI): Active
Hs-578T
  growth inhibition (GI): Active
DU-145
  growth inhibition (GI): Active
Malme-3M
  GI50: 3.16 µM
  TGI: > 100 µM
Malme-3M; [17]
  CC50: > 100 µM
MDA-MB-468 [12]
  GI50: 0.063 µM
  TGI: 0.28 µM
MDA-MB-468 [12]; [17]
  CC50: 1.38 µM
SNB-75
  growth inhibition (GI): Active
HT-29 [13]
  growth inhibition (GI): Active
ACHN [14]
  GI50: 8.31 µM
  TGI: > 100 µM
ACHN [14]; [17]
  CC50: > 100 µM
HOP-62
  GI50: > 100 µM
  TGI: > 100 µM
HOP-62; [17]
  CC50: > 100 µM
CAKI-1 [15]
  growth inhibition (GI): Active
CAKI-1 [16]
  GI50: 8.31 µM
  TGI: > 100 µM
CAKI-1 [16]; [17]
  CC50: > 100 µM
